Earlier results in patent publication US8748087B2, “Sequence of reverse transcriptase gene and method of use” (Fudan University, priority 2005, dated 2014).

Tested on: HBV
Details: patients with chronic hepatitis B

Q: With interferon alpha as the substance, how does the overall response rates read?
A: The overall response rates was “less than 30%”.
